Patent US12552846B2, “Modified BCL9 mimetic peptides” (Sapience Therapeutics, Inc., priority 2019, dated 2026)
pEC50: −log10 of the molar value. Square brackets hold non-standard residues; d marks the D form. Peptide text beside a SMILES is read from it.

Each molecule was assayed on HL60 promyelocytic leukemia cells (assay: Cytotoxicity assay in HL60 cells (Annexin V FITC / PI flow cytometry)). Settings: 48 hours, 0-80 μM, % Viability (Annexin V low, PI low).
Assay type: cell-based
Protocol: We examined the cytotoxicity of peptides BCL-26 and BCL-27 using an assay in HL60 promyelocytic leukemia cells. HL60 PML suspension cells were set at a density of 3.5×10^3 cells/well in 150 μL of RPMI+1.5% fetal bovine serum (FBS) in a 96 well dish. BCL-26 or BCL-27, reconstituted at a concentration of 10 mg/mL in 20 mM His, pH 7.5, was added to each well at a volume of 50 μL to a final concentration range of 0-80 μM. Cells were incubated with peptide for 48 hours at 37° C. Cell viability was quantified by flow cytometry using abcam Annexin V FITC apoptosis detection kit. Briefly, cells were washed with PBS and resuspended in 1× assay buffer containing Annexin V FITC and propidium iodide (PI). Annexin V detects apoptotic cells, and PI stains dead cells. After staining, apoptotic cells show green fluorescence, dead cells show red and green fluorescence, and live cells show little or no fluorescence. Cells were selected for analysis based on forward scatter (FSC) vs. side scatter (SSC), and analyzed by BD Accuri C6 Plus flow cytometer to detect Annexin V-FITC binding (Ex=488 nm; Em=530 nm) using FITC signal detector and PI staining by the phycoerythrnn emission signal detector. Percentage of Annexin V^low and PI^low were quantified and presented as % Viability.
We examined the cytotoxicity of additional retro inverso and mixed chirality BCL9 mimetic peptides in HL60 cells using the assay described above.

SMILES | pEC50
CC(C)C[C@@H](NC(=O)[C@@H](Cc1c[nH]c2ccccc12)NC(=O)[C@@H](N)Cc1ccccc1)C(=O)N[C@H](C)C(=O)N[C@H](CCCNC(=N)N)C(=O)N[C@H](CCC(N)=O)C(=O)N[C@H](CC(C)C)C(=O)N[C@H](C)C(=O)N[C@H](CCCNC(=N)N)C(=O)N[C@H](CC(C)C)C(=O)N[C@H](C)C(=O)N[C@H](CCC(N)=O)C(=O)N[C@H](CC(C)C)C(=O)N[C@H](C)C(=O)N[C@H](CCCCN)C(=O)N[C@H](CC(C)C)C(=O)N[C@@H](C(=O)N1CCC[C@@H]1C(=O)N[C@@H](C(=O)O)C(C)C)[C@H](C)O [BCL-99] (H-F[dW][dL][dA][dR][dQ][dL][dA][dR][dL][dA][dQ][dL][dA][dK][dL][dT][dP][dV]-OH; N-terminus and C-terminus assumed) | 5.00 to 5.70
CC(C)C[C@@H](NC(=O)[C@@H](Cc1c[nH]c2ccccc12)NC(=O)[C@@H](N)CCCNC(=N)N)C(=O)N[C@H](C)C(=O)N[C@H](CCCNC(=N)N)C(=O)N[C@H](CCC(N)=O)C(=O)N[C@H](CC(C)C)C(=O)N[C@H](C)C(=O)N[C@H](CCCNC(=N)N)C(=O)N[C@H](CC(C)C)C(=O)N[C@H](C)C(=O)N[C@H](CCC(N)=O)C(=O)N[C@H](CC(C)C)C(=O)N[C@H](C)C(=O)N[C@H](CCCCN)C(=O)N[C@H](CC(C)C)C(=O)N[C@@H](C(=O)N1CCC[C@@H]1C(=O)N[C@@H](C(=O)O)C(C)C)[C@H](C)O [BCL-100] (H-R[dW][dL][dA][dR][dQ][dL][dA][dR][dL][dA][dQ][dL][dA][dK][dL][dT][dP][dV]-OH; N-terminus and C-terminus assumed) | > 5.70
CC(C)C[C@@H](NC(=O)[C@@H](Cc1c[nH]c2ccccc12)NC(=O)[C@H](Cc1c[nH]c2ccccc12)NC(=O)[C@H](N)Cc1ccccc1)C(=O)N[C@H](C)C(=O)N[C@H](CCCNC(=N)N)C(=O)N[C@H](CCC(N)=O)C(=O)N[C@H](CC(C)C)C(=O)N[C@H](C)C(=O)N[C@H](CCCNC(=N)N)C(=O)N[C@H](CC(C)C)C(=O)N[C@H](C)C(=O)N[C@H](CCC(N)=O)C(=O)N[C@H](CC(C)C)C(=O)N[C@H](C)C(=O)N[C@H](CCCCN)C(=O)N[C@H](CC(C)C)C(=O)N[C@@H](C(=O)N1CCC[C@@H]1C(=O)N[C@@H](C(=O)O)C(C)C)[C@H](C)O [BCL-101] (H-[dF]W[dW][dL][dA][dR][dQ][dL][dA][dR][dL][dA][dQ][dL][dA][dK][dL][dT][dP][dV]-OH; N-terminus and C-terminus assumed) | > 5.70
CC(C)C[C@@H](NC(=O)[C@@H](CCCNC(=N)N)NC(=O)[C@@H](C)NC(=O)[C@@H](CC(C)C)NC(=O)[C@@H](CCC(N)=O)NC(=O)[C@@H](CCCNC(=N)N)NC(=O)[C@@H](CC(C)C)NC(=O)[C@@H](CC(C)C)NC(=O)[C@@H](Cc1c[nH]c2ccccc12)NC(=O)[C@H](N)Cc1c[nH]c2ccccc12)C(=O)N[C@H](C)C(=O)N[C@H](CCC(N)=O)C(=O)N[C@H](CC(C)C)C(=O)N[C@H](C)C(=O)N[C@H](CCCCN)C(=O)N[C@H](CC(C)C)C(=O)N[C@@H](C(=O)N1CCC[C@@H]1C(=O)N[C@@H](C(=O)O)C(C)C)[C@H](C)O [BCL-128] (H-[dW][dW][dL][dL][dR][dQ][dL][dA][dR][dL][dA][dQ][dL][dA][dK][dL][dT][dP][dV]-OH; N-terminus and C-terminus assumed) | > 5.70
CC(C)C[C@@H](NC(=O)[C@@H](Cc1c[nH]c2ccccc12)NC(=O)[C@H](CCCNC(=N)N)NC(=O)[C@H](N)Cc1ccccc1)C(=O)N[C@H](C)C(=O)N[C@H](CCCNC(=N)N)C(=O)N[C@H](CCC(N)=O)C(=O)N[C@H](CC(C)C)C(=O)N[C@H](C)C(=O)N[C@H](CCCNC(=N)N)C(=O)N[C@H](CC(C)C)C(=O)N[C@H](C)C(=O)N[C@H](CCC(N)=O)C(=O)N[C@H](CC(C)C)C(=O)N[C@H](C)C(=O)N[C@H](CCCCN)C(=O)N[C@H](CC(C)C)C(=O)N[C@@H](C(=O)N1CCC[C@@H]1C(=O)N[C@@H](C(=O)O)C(C)C)[C@H](C)O [BCL-129] (H-[dF]R[dW][dL][dA][dR][dQ][dL][dA][dR][dL][dA][dQ][dL][dA][dK][dL][dT][dP][dV]-OH; N-terminus and C-terminus assumed) | > 5.70
CC(C)C[C@@H](NC(=O)[C@@H](CCCNC(=N)N)NC(=O)[C@@H](C)NC(=O)[C@@H](CC(C)C)NC(=O)[C@@H](CCC(N)=O)NC(=O)[C@@H](CCCNC(=N)N)NC(=O)[C@H](NC(=O)[C@@H](CC(C)C)NC(=O)[C@@H](Cc1c[nH]c2ccccc12)NC(=O)[C@H](CCCNC(=N)N)NC(=O)[C@H](N)Cc1ccccc1)C(C)C)C(=O)N[C@H](C)C(=O)N[C@H](CCC(N)=O)C(=O)N[C@H](CC(C)C)C(=O)N[C@H](C)C(=O)N[C@H](CCCCN)C(=O)N[C@H](CC(C)C)C(=O)N[C@@H](C(=O)N1CCC[C@@H]1C(=O)N[C@@H](C(=O)O)C(C)C)[C@H](C)O [BCL-130] (H-[dF]R[dW][dL][dV][dR][dQ][dL][dA][dR][dL][dA][dQ][dL][dA][dK][dL][dT][dP][dV]-OH; N-terminus and C-terminus assumed) | > 5.70
CC(C)C[C@@H](NC(=O)[C@@H](CCCNC(=N)N)NC(=O)[C@@H](C)NC(=O)[C@@H](CC(C)C)NC(=O)[C@@H](CCC(N)=O)NC(=O)[C@@H](CCCNC(=N)N)NC(=O)[C@H](NC(=O)[C@@H](CC(C)C)NC(=O)[C@@H](Cc1c[nH]c2ccccc12)NC(=O)[C@H](Cc1c[nH]c2ccccc12)NC(=O)[C@H](N)Cc1ccccc1)C(C)C)C(=O)N[C@H](C)C(=O)N[C@H](CCC(N)=O)C(=O)N[C@H](CC(C)C)C(=O)N[C@H](C)C(=O)N[C@H](CCCCN)C(=O)N[C@H](CC(C)C)C(=O)N[C@@H](C(=O)N1CCC[C@@H]1C(=O)N[C@@H](C(=O)O)C(C)C)[C@H](C)O [BCL-131] (H-[dF]W[dW][dL][dV][dR][dQ][dL][dA][dR][dL][dA][dQ][dL][dA][dK][dL][dT][dP][dV]-OH; N-terminus and C-terminus assumed) | > 5.70
CC(C)C[C@@H](NC(=O)[C@@H](C)NC(=O)[C@@H](C)NC(=O)[C@@H](CC(C)C)NC(=O)[C@@H](CCCNC(=N)N)NC(=O)[C@@H](C)NC(=O)[C@@H](CC(C)C)NC(=O)[C@@H](CCC(N)=O)NC(=O)[C@@H](CCCNC(=N)N)NC(=O)[C@@H](C)NC(=O)[C@@H](CC(C)C)NC(=O)[C@@H](Cc1c[nH]c2ccccc12)NC(=O)[C@H](Cc1c[nH]c2ccccc12)NC(=O)[C@H](N)Cc1ccccc1)C(=O)N[C@H](C)C(=O)N[C@H](CCCCN)C(=O)N[C@H](CC(C)C)C(=O)N[C@@H](C(=O)N1CCC[C@@H]1C(=O)N[C@@H](C(=O)O)C(C)C)[C@H](C)O [BCL-132] (H-[dF]W[dW][dL][dA][dR][dQ][dL][dA][dR][dL][dA][dA][dL][dA][dK][dL][dT][dP][dV]-OH; N-terminus and C-terminus assumed) | > 5.70
CC(C)C[C@@H](NC(=O)[C@@H](C)NC(=O)[C@@H](C)NC(=O)[C@@H](CC(C)C)NC(=O)[C@@H](CCC(N)=O)NC(=O)[C@@H](CCCNC(=N)N)NC(=O)[C@@H](C)NC(=O)[C@@H](CC(C)C)NC(=O)[C@@H](Cc1c[nH]c2ccccc12)NC(=O)[C@H](Cc1c[nH]c2ccccc12)NC(=O)[C@H](N)Cc1ccccc1)C(=O)N[C@H](C)C(=O)N[C@H](CCC(N)=O)C(=O)N[C@H](CC(C)C)C(=O)N[C@H](C)C(=O)N[C@H](CCCCN)C(=O)N[C@H](CC(C)C)C(=O)N[C@@H](C(=O)N1CCC[C@@H]1C(=O)N[C@@H](C(=O)O)C(C)C)[C@H](C)O [BCL-133] (H-[dF]W[dW][dL][dA][dR][dQ][dL][dA][dA][dL][dA][dQ][dL][dA][dK][dL][dT][dP][dV]-OH; N-terminus and C-terminus assumed) | > 5.70
